Entries after “also recorded” stand apart in the source; their conditions may differ.
Tested on: zebrafish larvae
Test: Light- and Optovin-induced motor response assay
Type: in vivo, zebrafish (Danio rerio)
Settings: 10 μM optovin, wild-type zebrafish, pulsed violet light
Method: Light- and Optovin-induced motor response assay. Zebrafish larvae at 3 dpf were arrayed in 96-well plates and treated with 10 μM optovin (Fisher Scientific, cat #490110) in a total volume of 200 μL E3 media. Treated larvae were incubated at […] for 1 h in dark. […] Movement of the larvae was tracked and quantitated following 5×1s pulse of violet light after 10 s interval in the dark.
Identifying the protein targets of small molecules remains one of the major challenges in chemical biology and pharmacology. Herein it was hypothesized that MIC-Drop could be used to identify the targets of small molecules that result in complex behavioral phenotypes in the zebrafish. As proof-of-principle, optovin was utilized, a small molecule agonist of the trpa1b channel that allows photo-activatable behavioral modifications in zebrafish. Droplets targeting the trpa1b channel were spiked into a collection of droplets containing scrambled gRNAs in a 1:20 ratio (FIG. 7B). Droplet-injected embryos were arrayed into 96-well plates, treated with optovin and exposed to violet light flashes while simultaneously recording embryo movement. […] Thus, the MIC-Drop platform was able to be used to identify the target of optovin from among a library of non-target candidates.

Cc1cc(/C=C2/SC(=S)NC2=O)c(C)n1-c1cccnc1 [optovin]
motor response of zebrafish after treatment: light-dependent motor response; also recorded: light-dependent motion response
